Assay results: ChEMBL document CHEMBL1149673, “A novel approach to cyclin-dependent kinase 5/p25 inhibitors: A potential treatment for Alzheimer's disease” (Bioorg Med Chem, 2007); call rule not given here

What was measured:
[1] = molecular target: Cyclin-dependent kinase 5/CDK5 activator 1 (Homo sapiens, UniProt Q00535); test: Inhibitory activity against Cdk5/p25; type: protein-complex assay
[2] = Inhibitory activity against Cdk2/cyclin E; set-up: species or system Homo sapiens
[3] = organism: Homo sapiens; test: Selectivity for Cdk5/p25 over Cdk2/cyclin E
[4] = Toxicity in Vero-C1008 cells at 6.25 to 50 ug/ml; type: cell-based; conditions: African green monkey

Sequence of Cyclin-dependent kinase 5/CDK5 activator 1 (Q00535 whole entry): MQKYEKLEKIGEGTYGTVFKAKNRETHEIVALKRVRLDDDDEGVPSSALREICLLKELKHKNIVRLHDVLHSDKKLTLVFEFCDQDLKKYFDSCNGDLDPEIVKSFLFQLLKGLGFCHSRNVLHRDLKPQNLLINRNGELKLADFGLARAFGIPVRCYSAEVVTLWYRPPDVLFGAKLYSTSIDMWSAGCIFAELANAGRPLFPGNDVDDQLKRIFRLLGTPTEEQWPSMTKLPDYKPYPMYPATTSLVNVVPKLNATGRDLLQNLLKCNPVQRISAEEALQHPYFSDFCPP
Sequence of Cyclin-dependent kinase 5/CDK5 activator 1 (Q15078 whole entry, further chain): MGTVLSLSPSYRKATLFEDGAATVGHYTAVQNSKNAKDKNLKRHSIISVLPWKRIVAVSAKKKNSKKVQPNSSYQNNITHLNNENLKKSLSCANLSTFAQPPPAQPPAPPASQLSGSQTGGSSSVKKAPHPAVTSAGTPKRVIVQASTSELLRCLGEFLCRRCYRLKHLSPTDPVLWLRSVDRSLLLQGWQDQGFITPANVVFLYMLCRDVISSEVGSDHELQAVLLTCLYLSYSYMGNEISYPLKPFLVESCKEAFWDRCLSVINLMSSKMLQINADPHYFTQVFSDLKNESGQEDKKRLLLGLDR

| SMILES | IC50 [1] [nM] | IC50 [2] [nM] | Ratio IC50 [3] | Activity [4] |
| --- | --- | --- | --- | --- |
| CC(=O)Nc1cc(-c2ccccc2)c(-c2nnc3n2N=C(c2cc(F)c(Cl)cc2Cl)/C(=C/c2ccccc2Cl)S3)s1 | 2460 | – | – | Not Active |
| Cc1cc(NC(=O)CCl)sc1-c1nnc2n1N=C(c1cc(F)c(Cl)cc1Cl)/C(=C/c1cccc([N+](=O)[O-])c1)S2 | 3070 | – | – | Not Active |
| CC(=O)Nc1cc(C)c(-c2nnc3sc(-c4cccc([N+](=O)[O-])c4)nn23)s1 | 64 | 78 | 1 | Not Active |
| Cc1cc(NC(=O)CCl)sc1-c1nnc2sc(-c3cccc([N+](=O)[O-])c3)nn12 | 53 | 64 | 1 | Not Active |
| CC1=Nn2c(nnc2-c2sc(NC(=O)CCl)cc2-c2ccccc2)SC1 | 368 | – | – | Not Active |
| O=C(CCl)Nc1cc(-c2ccccc2)c(-c2nnc3n2N=C(c2cc(F)c(Cl)cc2Cl)/C(=C/c2ccccc2)S3)s1 | 2490 | – | – | Not Active |
| CC(=O)Nc1cc(-c2ccccc2)c(-c2nnc3sc(=S)[nH]n23)s1 | 2060 | – | – | Not Active |
| O=C(CCl)Nc1cc(-c2ccccc2)c(-c2nnc3n2N=C(c2cc(F)c(Cl)cc2Cl)/C(=C/c2ccc(Cl)cc2)S3)s1 | 2450 | – | – | Not Active |
| O=C(CCl)Nc1cc(-c2ccccc2)c(-c2nnc3sc(S)nn23)s1 | 5900 | – | – | Not Active |
| CC(=O)Nc1cc(C)c(-c2nnc3n2NC(c2ccccc2)=C(c2ccccc2)S3)s1 | 44 | 89 | 2 | Not Active |
| CC(=O)Nc1cc(-c2ccccc2)c(-c2nnc3n2N=C(c2cc(F)c(Cl)cc2Cl)/C(=C/c2cccc([N+](=O)[O-])c2)S3)s1 | 2440 | – | – | Not Active |
| O=C(CCl)Nc1cc(-c2ccccc2)c(-c2nnc3n2NC(=O)CS3)s1 | 634 | – | – | Not Active |
| O=C(CCl)Nc1cc(-c2ccccc2)c(-c2nnc3n2N=C(c2cc(F)c(Cl)cc2Cl)/C(=C/c2ccccc2Cl)S3)s1 | 2460 | – | – | Not Active |
| Cc1cc(NC(=O)CCl)sc1-c1nnc2n1NC(=O)CS2 | 820 | – | – | Not Active |
| CC(=O)Nc1cc(C)c(-c2nnc3n2N=C(c2cc(F)c(Cl)cc2Cl)/C(=C/c2cccc([N+](=O)[O-])c2)S3)s1 | 3050 | – | – | Not Active |
| CC(=O)Nc1cc(-c2ccccc2)c(-c2nnc3n2N=C(c2cc(F)c(Cl)cc2Cl)/C(=C/c2ccc(Cl)cc2)S3)s1 | 2480 | – | – | Not Active |

| SMILES | IC50 [1] [nM] | IC50 [2] [nM] | Ratio IC50 [3] | Activity [4] |
| --- | --- | --- | --- | --- |
| Cc1cc(NC(=O)CCl)sc1-c1nnc2n1N=C(c1cc(F)c(Cl)cc1Cl)/C(=C/c1ccccc1Cl)S2 | 3340 | – | – | Not Active |
| Cc1cc(NC(=O)CCl)sc1-c1nnc2sc(-c3ccccc3)nn12 | 30 | 95 | 3.2 | Not Active |
| O=C(CCl)Nc1cc(-c2ccccc2)c(-c2nnc3n2NC(c2ccccc2)=C(c2ccccc2)S3)s1 | 62 | 126 | 2 | Not Active |
| O=C(CCl)Nc1cc(-c2ccccc2)c(-c2nnc3sc(-c4cccc([N+](=O)[O-])c4)nn23)s1 | 48 | 52 | 1 | Not Active |
| CC(=O)Nc1cc(-c2ccccc2)c(-c2nnc3sc(-c4cccc([N+](=O)[O-])c4)nn23)s1 | 60 | 64 | 1 | Not Active |
| Cc1cc(NC(=O)CCl)sc1-c1nnc2n1Nc1nc3ccccc3nc1S2 | 64 | 142 | 2.2 | Not Active |
| CC1=Nn2c(nnc2-c2sc(NC(=O)CCl)cc2C)SC1 | 462 | – | – | Not Active |
| CC(=O)Nc1cc(-c2ccccc2)c(-c2nnc3n2NC(=O)CS3)s1 | 418 | – | – | Not Active |
| CC(=O)Nc1cc(C)c(-c2nnc3n2N=C(C)CS3)s1 | 642 | – | – | Not Active |
| Cc1cc(NC(=O)CCl)sc1-c1nnc2n1N=C(c1cc(F)c(Cl)cc1Cl)/C(=C/c1ccccc1)S2 | 3420 | – | – | Not Active |
| CC(=O)Nc1cc(C)c(-c2nnc3n2N=C(c2cc(F)c(Cl)cc2Cl)/C(=C/c2ccccc2Cl)S3)s1 | 3280 | – | – | Not Active |
| CC(=O)Nc1cc(C)c(-c2nnc3n2N=C(c2cc(F)c(Cl)cc2Cl)/C(=C/c2ccccc2)S3)s1 | 2370 | – | – | Not Active |
| O=C(CCl)Nc1cc(-c2ccccc2)c(-c2nnc3n2N=C(c2cc(F)c(Cl)cc2Cl)/C(=C/c2cccc([N+](=O)[O-])c2)S3)s1 | 2680 | – | – | Not Active |
| CC(=O)Nc1cc(-c2ccccc2)c(-c2nnc3n2Nc2nc4ccccc4nc2S3)s1 | 54 | 64 | 1.2 | Not Active |
| Cc1cc(NC(=O)CCl)sc1-c1nnc(S)n1N | 46 | 49 | – | Not Active |
| CC(=O)Nc1cc(-c2ccccc2)c(-c2nnc3n2NC(c2ccccc2)=C(c2ccccc2)S3)s1 | 40 | 82 | 2 | Not Active |

More lines, in order of falling IC50 [1], values ahead:

| IC50 [1] [nM] | IC50 [2] [nM] | Ratio IC50 [3] | SMILES | Activity [4] |
| --- | --- | --- | --- | --- |
| 7480 | – | – | Cc1cc(NC(=O)CCl)sc1-c1nnc2sc(=S)[nH]n12 | Not Active |
| 3390 | – | – | CC(=O)Nc1cc(C)c(-c2nnc3n2N=C(c2cc(F)c(Cl)cc2Cl)/C(=C/c2ccc(Cl)cc2)S3)s1 | Not Active |
| 3260 | – | – | CC(=O)Nc1cc(C)c(-c2nnc3sc(=S)[nH]n23)s1 | Not Active |
| 2970 | – | – | Cc1cc(NC(=O)CCl)sc1-c1nnc2n1N=C(c1cc(F)c(Cl)cc1Cl)/C(=C/c1ccc(Cl)cc1)S2 | Not Active |
| 1450 | – | – | CC(=O)Nc1cc(-c2ccccc2)c(-c2nnc3n2N=C(c2cc(F)c(Cl)cc2Cl)/C(=C/c2ccccc2)S3)s1 | Not Active |
| 630 | – | – | CC(=O)Nc1cc(C)c(-c2nnc3n2NC(=O)CS3)s1 | Not Active |
| 448 | – | – | CC(=O)Nc1cc(-c2ccccc2)c(-c2nnc3n2N=C(C)CS3)s1 | Not Active |
| 72 | 154 | 2 | Cc1cc(NC(=O)CCl)sc1-c1nnc2n1NC(c1ccccc1)=C(c1ccccc1)S2 | Not Active |
| 58 | 53 | 1 | CC(=O)Nc1cc(C)c(-c2nnc(S)n2N)s1 | Not Active |
| 54 | 56 | 1 | CC(=O)Nc1cc(-c2ccccc2)c(-c2nnc(S)n2N)s1 | Not Active |
| 42 | 51 | 1.2 | CC(=O)Nc1cc(C)c(-c2nnc3sc(-c4ccccc4)nn23)s1 | Not Active |
| 42 | 120 | 3 | Nn1c(S)nnc1-c1sc(NC(=O)CCl)cc1-c1ccccc1 | Not Active |
| 38 | 44 | 1.2 | CC(=O)Nc1cc(-c2ccccc2)c(-c2nnc3sc(-c4ccccc4)nn23)s1 | Not Active |
| 34 | 70 | 2 | CC(=O)Nc1cc(C)c(-c2nnc3n2Nc2nc4ccccc4nc2S3)s1 | Not Active |
| 30 | 102 | 3.2 | O=C(CCl)Nc1cc(-c2ccccc2)c(-c2nnc3n2Nc2nc4ccccc4nc2S3)s1 | Not Active |
| 28 | 92 | 3.2 | O=C(CCl)Nc1cc(-c2ccccc2)c(-c2nnc3sc(-c4ccccc4)nn23)s1 | Not Active |
